From patent US6706257B1, “Sunless tanning products and processes” (Discovery Partners, LLC, priority 2001, dated 2004) come the findings set out here.

In one series the test system is skin. The series can be described thus: Tanning effect of MSM additions to DHA formulas or accelerators. It counts as in vivo, human. The source says:
Applicant has conducted experiments with a typical oil-in-water self tanning cream containing DHA as the self tanning agent with or without the inclusion of MSM. […] Applicant also conducted experiments with DHA containing self-tanning liquid mousse compositions, with and without MSM.

Series [1] is described as follows: Solubility of MSM in water. The series is classed as physicochemical. Particulars: by weight.

Take `CS(C)(=O)=O` [MSM, methylsulfonyl methane]: the tanning effect result is on record as “ineffective” in the series on skin (0.1% addition of MSM) and “enhances tanning effect producing a more intense hue that lasts longer” with skin (addition of 5% MSM to DHA formulas, with or without soluble dyes). Also, the “solubility of MSM in water” value in series [1] is given as roughly 20%.
